Consider two compounds from patent publication US20260028334A1, “N-(3-(BENZO[B]THIOPHENE-2-CARBOXAMIDO)-PHENYL)-2,3-DIHYDROBENZO[B][1,4]DIOXINE-6-CARBOXAMIDE DERIVATIVES AND RELATED COMPOUNDS AS LACTATE/ATP PRODUCTION INHIBITORS FOR THE TREATMENT OF CANCER” (WMT Aktiengesellschaft, priority 2022, published 2026).

Holding throughout (type): cell-based
For experiment [1], the system named is HeLa, 4T1, LLC1, A549, MDA-MB-231 and MiaPaCa2 cells. Put plainly: Lactate production inhibition assay (FIG. 2). As to conditions: 48 hours treatment, 1.5 to 10000 nM. An excerpt:
(§1) Recombinant Lactate Dehydrogenase A (LDHA) was used to convert lactate in tissue culture supernatants to pyruvate, with the concomitant reduction of NAD^+ to NADH. The electron acceptor 1-methoxyphenazine methosulfate (MPMS) was then reduced by the generated NADH, thereby regenerating NAD+. Reduced 1-methoxyphenazine methosulfate is used in turn to reduce Water Soluble Tetrazolium 8 (WST8) to an orange WST8 formazan product. The assay is adapted from the publication “Application of WST-8 based colorimetric NAD(P)H detection for quantitative dehydrogenase assays” described in Chamchoy et al., BMC Biochemistry (2019) 20(1):4.
(§2) Cells were plated at 4,000 per well in 96-well plate in a medium of high glucose DMEM (PAN) supplemented with 10% FBS (PAN), 2 mM glutamine-alanine (PAN), 2 mM pyruvate (Sigma) and 10 mL/L penicillin-streptomycin (PAN) and grown at 37° C. in 0.5% O2, 5% CO2 and 75% humidity. For hypoxia, cells were grown and treated in the Whitley H35 Hypoxystation (Don Whitley Scientific) at 37° C. in 0.5% O2, 5% CO2 and 75% humidity. […] Thereafter, 80 μl of substrate mix is added to 20 μl of diluted cell supernatant in a 96-well flat-bottomed plate and the absorbance at 460 nm determined at one minute intervals over a 30 minute period. […]

A further experiment has as its system HeLa cells. Description: Lactate production inhibition assay, co-treatment with phenformin (FIG. 7). As to conditions: 48 hours co-treatment of phenformin (6.25-100 μM) with compound at 41, 14, 4.6 nM.
Excerpt: as §1, §2

Experiment [2] concerns ER stress markers CHAC and CHOP/DDIT3. Put plainly: Gene expression analysis by qPCR (FIG. 8E-8AB). As to conditions: Panc02 and SKOV3 cells, 10 nM, 0.5, 1, 2 and 4 hours. Here is the method: Cells were plated at 40,000 cells per ml in medium of high glucose DMEM (PAN) supplemented with 10% FBS (PAN), 2 mM glutamine-alanine (PAN), 2 mM pyruvate (Sigma) and 10 mL/L penicillin-streptomycin (PAN), and grown at 37° C. in 0.5% O2, 5% CO2 and 75% humidity. Next day, cells were induced with test compounds (FIG. 3: compounds of example 3/16, 3/8, 10 at 10 nM; FIG. 8E-8AB: compounds of example 3/16, 3/8, 10, 3/19, 30 and 30/2 at 10 nM) 0.5, 1, 2 and 4 hours, as well as with vehicle (DMSO) only. After this time, the cells were lysed according to protocol (Promega, SV 96 Total RNA Isolation System, #Z3505). After transferring the lysate to a 96-well-RNA binding plate, RNA was isolated and put at approx. 1 μg into cDNA synthesis using LunaScript RT SuperMix Kit (NEB, #E3010). The resulting cDNA was diluted 1:5 and used for qPCR Analysis (Taqman). Luna Universal Probe qPCR Master Mix (NEB, #M3004) is used as 2× reaction mix to which the diluted cDNA is added. The qPCR analysis was performed using QuantStudio™ 6 Flex real-time PCR systems (Thermo Fisher Scientific).
A set of primers plus probe for each gene of interest was purchased at IDT (Integrated DNA Technologies).

Experiment [3] relates to HeLa cell line expressing GFP-LC3. Put plainly: Determination of autophagic flux. As to conditions: HeLa GFP-LC3 reporter cells, 24 hours of treatment, flow cytometry, FIG. 6. An excerpt:
A HeLa cell line stably expressing an artificial protein construct consisting of Green Fluorescent Protein (GFP) as an N-terminal fusion to the human full-length LC3 protein, placed in front of a Red Fluorescent Protein (RFP) as an N terminal fusion to human LC3 lacking its C-terminal Glycine residue (LC3DG), was used to determine autophagic flux (Kaizuka et al., Mol. Cell (2016) 17 835-849) This construct is cleaved in cells by ATG4 at the C-terminus of the full-length LC3 protein, whereupon the GFP-LC3 fragment becomes conjugated to phosphatidyl ethanolamine. The RFP-LC3DG cannot be lipidated, and can be used as an internal reference to produce ratiometric values reporting autophagic flux. The lipidated GFP-LC3 protein becomes incorporated into the membrane of autophagosomes, and upon fusion with lysosomes, is degraded. Consequently, cells with a high autophagic flux have less GFP-LC3, whereas a low autophagic flux results in a relatively higher intracellular amount of GFP-LC3.
Reporter cells were grown as sub-confluent cultures and test compounds were applied at various concentrations. Thapsigargin, a known inducer of autophagy, was used as a positive control. After 24 hours of treatment, a single-cell suspension was prepared by trypsinization, and the GFP fluorescence determined by flow cytometry. A minimum of 10,000 single cells were evaluated for each condition.

As to `Cc1ccc(NC(=O)c2ccc3c(c2)OCCO3)cc1NC(=O)c1cc2cccnc2s1` [3/16], the lactate production level entry in experiment [1] is on record as “dose-dependent reduction”. Also, the lactate levels result with HeLa cells is “downregulation”. The “ER stress markers CHAC and CHOP/DDIT3” value in experiment [2] is reported as “time-dependent upregulation”. For the same compound, the autophagic flux entry in experiment [3] is “significantly enhance”.
For `O=C(Nc1ccc(F)c(NC(=O)c2cc3ccc(OCCCN4CCCC4)cc3s2)c1)c1ccc2c(c1)OCCO2` [3/8] the same measures were “dose-dependent reduction”, “downregulation”, “time-dependent upregulation” and “significantly enhance”.
